From paper PMC10838953

Assays:
MELK = MELK (Homo sapiens, UniProt Q14680); test: biochemical; conditions: read-out: %Ctrl @ 2000nM
ALK(L1196M) = ALK(L1196M) (Homo sapiens, UniProt Q9UM73, L1196M); test: biochemical; conditions: read-out: %Ctrl @ 2000nM
HIPK1 = HIPK1 (Homo sapiens, UniProt Q86Z02); test: biochemical; conditions: read-out: %Ctrl @ 2000nM
EPHA2 = EPHA2 (Homo sapiens, UniProt P29317); test: biochemical; conditions: read-out: %Ctrl @ 2000nM
MYLK2 = MYLK2 (Homo sapiens, UniProt Q9H1R3); test: biochemical; conditions: read-out: %Ctrl @ 2000nM
MAP3K4 = MAP3K4 (Homo sapiens, UniProt Q9Y6R4); test: biochemical; conditions: read-out: %Ctrl @ 2000nM
KIT(V559D,T670I) = KIT(V559D,T670I) (Homo sapiens, UniProt P10721, T670I/V559D); test: biochemical; conditions: read-out: %Ctrl @ 2000nM
[1] = tested on: 786-O, A549, MDA-MB-231, OVCAR-3, U373 MG
[2] = target: ABL1(Q252H)-phosphorylated (Homo sapiens, UniProt P00519, Q252H); test: biochemical; conditions: read-out: %Ctrl @ 2000nM
PFTAIRE2 = PFTAIRE2 (Homo sapiens, UniProt Q96Q40); test: biochemical; conditions: read-out: %Ctrl @ 2000nM
EPHB3 = EPHB3 (Homo sapiens, UniProt P54753); test: biochemical; conditions: read-out: %Ctrl @ 2000nM
[3] = target: ABL1(Y253F)-phosphorylated (Homo sapiens, UniProt P00519, Y253F); test: biochemical; conditions: read-out: %Ctrl @ 2000nM
[4] = target: JAK3(JH1domain-catalytic) (Homo sapiens, UniProt P52333); test: biochemical; conditions: read-out: %Ctrl @ 2000nM
CDK4-cyclinD3 = CDK4-cyclinD3 (Homo sapiens, UniProt P11802); test: biochemical; conditions: read-out: %Ctrl @ 2000nM
NEK11 = NEK11 (Homo sapiens, UniProt Q8NG66); test: biochemical; conditions: read-out: %Ctrl @ 2000nM
HUNK = HUNK (Homo sapiens, UniProt P57058); test: biochemical; conditions: read-out: %Ctrl @ 2000nM
CAMK1D = CAMK1D (Homo sapiens, UniProt Q8IU85); test: biochemical; conditions: read-out: %Ctrl @ 2000nM
CHEK2 = CHEK2 (Homo sapiens, UniProt O96017); test: biochemical; conditions: read-out: %Ctrl @ 2000nM
GCN2(Kin.Dom.2,S808G) = GCN2(Kin.Dom.2,S808G) (Homo sapiens, UniProt Q9P2K8, S808G); test: biochemical; conditions: read-out: %Ctrl @ 2000nM
DAPK2 = DAPK2 (Homo sapiens, UniProt Q9UIK4); test: biochemical; conditions: read-out: %Ctrl @ 2000nM
ABL1-phosphorylated = ABL1-phosphorylated (Homo sapiens, UniProt P00519); test: biochemical; conditions: read-out: %Ctrl @ 2000nM
ZAP70 = ZAP70 (Homo sapiens, UniProt P43403); test: biochemical; conditions: read-out: %Ctrl @ 2000nM
786-O cells = conditions: 48 h
TNNI3K = TNNI3K (Homo sapiens, UniProt Q59H18); test: biochemical; conditions: read-out: %Ctrl @ 2000nM
FLT3 = FLT3 (Homo sapiens, UniProt P36888); test: biochemical; conditions: read-out: %Ctrl @ 2000nM
ABL2 = ABL2 (Homo sapiens, UniProt P42684); test: biochemical; conditions: read-out: %Ctrl @ 2000nM
p38 MAPK (T180/Y182) = conditions: HEK293 cells; 48 h
PRKR = PRKR (Homo sapiens, UniProt P19525); test: biochemical; conditions: read-out: %Ctrl @ 2000nM
[5] = target: ABL1(T315I)-nonphosphorylated (Homo sapiens, UniProt P00519, T315I); test: biochemical; conditions: read-out: %Ctrl @ 2000nM
ASK1 = ASK1 (Homo sapiens, UniProt Q99683); test: biochemical; conditions: read-out: %Ctrl @ 2000nM
LKB1 = LKB1 (Homo sapiens, UniProt Q15831); test: biochemical; conditions: read-out: %Ctrl @ 2000nM
PDGFRB = PDGFRB (Homo sapiens, UniProt P09619); test: biochemical; conditions: read-out: %Ctrl @ 2000nM
MYO3A = MYO3A (Homo sapiens, UniProt Q8NEV4); test: biochemical; conditions: read-out: %Ctrl @ 2000nM
EPHA7 = EPHA7 (Homo sapiens, UniProt Q15375); test: biochemical; conditions: read-out: %Ctrl @ 2000nM
MAP3K2 = MAP3K2 (Homo sapiens, UniProt Q9Y2U5); test: biochemical; conditions: read-out: %Ctrl @ 2000nM
SLK = SLK (Homo sapiens, UniProt Q9H2G2); test: biochemical; conditions: read-out: %Ctrl @ 2000nM
ERK8 = ERK8 (Homo sapiens, UniProt Q8TD08); test: biochemical; conditions: read-out: %Ctrl @ 2000nM
AKT1 = AKT1 (Homo sapiens, UniProt P31749); test: biochemical; conditions: read-out: %Ctrl @ 2000nM
LOK = LOK (Homo sapiens, UniProt O94804); test: biochemical; conditions: read-out: %Ctrl @ 2000nM
CAMK1B = CAMK1B (Homo sapiens, UniProt Q6P2M8); test: biochemical; conditions: read-out: %Ctrl @ 2000nM
CAMK1 = CAMK1 (Homo sapiens, UniProt Q14012); test: biochemical; conditions: read-out: %Ctrl @ 2000nM
MAST1 = MAST1 (Homo sapiens, UniProt Q9Y2H9); test: biochemical; conditions: read-out: %Ctrl @ 2000nM

CAMK1D, sequence (Q8IU85 whole entry): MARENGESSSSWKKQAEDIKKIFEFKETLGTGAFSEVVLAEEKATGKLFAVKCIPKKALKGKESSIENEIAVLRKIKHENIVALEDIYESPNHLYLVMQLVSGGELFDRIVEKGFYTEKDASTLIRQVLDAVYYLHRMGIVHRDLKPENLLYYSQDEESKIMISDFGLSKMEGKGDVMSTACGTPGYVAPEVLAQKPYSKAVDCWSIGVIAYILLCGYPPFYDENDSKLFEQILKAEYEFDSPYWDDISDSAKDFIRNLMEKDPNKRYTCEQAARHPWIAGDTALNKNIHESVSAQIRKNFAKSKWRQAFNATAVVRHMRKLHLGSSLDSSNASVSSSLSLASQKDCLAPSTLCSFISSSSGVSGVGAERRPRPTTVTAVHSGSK
TNNI3K, sequence (Q59H18 whole entry): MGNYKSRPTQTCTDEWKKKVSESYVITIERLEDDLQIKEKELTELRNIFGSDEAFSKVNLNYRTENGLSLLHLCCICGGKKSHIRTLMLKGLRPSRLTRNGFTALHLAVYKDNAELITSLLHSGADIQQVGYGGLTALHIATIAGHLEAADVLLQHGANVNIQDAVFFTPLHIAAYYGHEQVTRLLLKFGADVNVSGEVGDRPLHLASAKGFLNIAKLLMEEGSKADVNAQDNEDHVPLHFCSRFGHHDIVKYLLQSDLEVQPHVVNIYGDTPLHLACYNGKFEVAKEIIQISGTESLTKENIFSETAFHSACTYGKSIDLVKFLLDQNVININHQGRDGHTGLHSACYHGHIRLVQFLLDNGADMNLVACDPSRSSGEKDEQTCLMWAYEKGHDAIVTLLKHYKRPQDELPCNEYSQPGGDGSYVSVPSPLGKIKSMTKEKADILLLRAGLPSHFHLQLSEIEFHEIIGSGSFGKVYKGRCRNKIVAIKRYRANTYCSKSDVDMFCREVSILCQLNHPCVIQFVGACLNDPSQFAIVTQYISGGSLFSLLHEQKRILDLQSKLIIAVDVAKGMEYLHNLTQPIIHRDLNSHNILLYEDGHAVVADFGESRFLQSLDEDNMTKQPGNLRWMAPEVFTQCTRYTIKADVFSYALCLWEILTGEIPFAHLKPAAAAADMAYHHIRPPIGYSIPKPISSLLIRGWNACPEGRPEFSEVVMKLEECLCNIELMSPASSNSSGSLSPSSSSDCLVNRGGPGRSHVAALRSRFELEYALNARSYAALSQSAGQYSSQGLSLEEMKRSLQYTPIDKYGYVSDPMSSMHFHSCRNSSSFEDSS
JAK3(JH1domain-catalytic), sequence (P52333 813-1124 limits assumed): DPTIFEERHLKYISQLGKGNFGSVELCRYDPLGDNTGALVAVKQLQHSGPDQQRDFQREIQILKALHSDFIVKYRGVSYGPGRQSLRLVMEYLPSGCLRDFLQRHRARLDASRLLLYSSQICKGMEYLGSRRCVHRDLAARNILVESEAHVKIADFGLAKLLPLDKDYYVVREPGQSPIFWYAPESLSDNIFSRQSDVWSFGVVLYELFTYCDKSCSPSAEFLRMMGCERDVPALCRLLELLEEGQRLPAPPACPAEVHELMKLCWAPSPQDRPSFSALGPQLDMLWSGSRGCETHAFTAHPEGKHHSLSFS
CHEK2, sequence (O96017 whole entry): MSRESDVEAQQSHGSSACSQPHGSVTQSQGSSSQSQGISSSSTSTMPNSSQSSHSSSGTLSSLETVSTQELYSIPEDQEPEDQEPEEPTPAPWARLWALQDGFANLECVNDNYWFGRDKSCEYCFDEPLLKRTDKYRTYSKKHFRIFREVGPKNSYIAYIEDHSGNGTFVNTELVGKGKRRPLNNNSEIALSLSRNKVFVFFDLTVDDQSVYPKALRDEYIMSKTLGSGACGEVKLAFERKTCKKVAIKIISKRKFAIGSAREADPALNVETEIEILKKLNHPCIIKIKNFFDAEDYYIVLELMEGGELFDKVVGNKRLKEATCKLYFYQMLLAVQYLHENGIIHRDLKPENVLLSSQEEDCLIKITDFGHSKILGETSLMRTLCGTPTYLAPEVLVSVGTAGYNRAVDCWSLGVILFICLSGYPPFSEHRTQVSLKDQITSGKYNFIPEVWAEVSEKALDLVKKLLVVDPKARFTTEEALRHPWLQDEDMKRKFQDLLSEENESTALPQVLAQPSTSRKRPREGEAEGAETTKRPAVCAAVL
NEK11, sequence (Q8NG66 whole entry): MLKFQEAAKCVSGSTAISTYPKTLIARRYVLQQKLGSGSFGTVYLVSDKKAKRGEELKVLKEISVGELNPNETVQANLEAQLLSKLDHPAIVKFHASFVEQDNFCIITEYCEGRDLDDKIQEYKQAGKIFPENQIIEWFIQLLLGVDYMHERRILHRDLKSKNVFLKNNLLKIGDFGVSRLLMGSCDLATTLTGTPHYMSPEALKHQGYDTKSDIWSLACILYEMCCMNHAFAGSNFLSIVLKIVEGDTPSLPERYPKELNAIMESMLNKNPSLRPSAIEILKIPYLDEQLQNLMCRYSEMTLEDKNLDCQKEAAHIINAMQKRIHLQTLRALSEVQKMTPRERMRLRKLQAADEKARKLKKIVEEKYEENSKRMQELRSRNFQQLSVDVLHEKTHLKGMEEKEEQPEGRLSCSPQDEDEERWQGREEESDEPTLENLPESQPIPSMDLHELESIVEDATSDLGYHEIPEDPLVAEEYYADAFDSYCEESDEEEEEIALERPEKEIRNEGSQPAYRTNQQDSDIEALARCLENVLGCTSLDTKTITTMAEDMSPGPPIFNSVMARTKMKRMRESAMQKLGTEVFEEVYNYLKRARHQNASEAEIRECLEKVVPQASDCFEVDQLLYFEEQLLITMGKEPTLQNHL
ALK(L1196M), sequence (Q9UM73 19-1620 L1196M): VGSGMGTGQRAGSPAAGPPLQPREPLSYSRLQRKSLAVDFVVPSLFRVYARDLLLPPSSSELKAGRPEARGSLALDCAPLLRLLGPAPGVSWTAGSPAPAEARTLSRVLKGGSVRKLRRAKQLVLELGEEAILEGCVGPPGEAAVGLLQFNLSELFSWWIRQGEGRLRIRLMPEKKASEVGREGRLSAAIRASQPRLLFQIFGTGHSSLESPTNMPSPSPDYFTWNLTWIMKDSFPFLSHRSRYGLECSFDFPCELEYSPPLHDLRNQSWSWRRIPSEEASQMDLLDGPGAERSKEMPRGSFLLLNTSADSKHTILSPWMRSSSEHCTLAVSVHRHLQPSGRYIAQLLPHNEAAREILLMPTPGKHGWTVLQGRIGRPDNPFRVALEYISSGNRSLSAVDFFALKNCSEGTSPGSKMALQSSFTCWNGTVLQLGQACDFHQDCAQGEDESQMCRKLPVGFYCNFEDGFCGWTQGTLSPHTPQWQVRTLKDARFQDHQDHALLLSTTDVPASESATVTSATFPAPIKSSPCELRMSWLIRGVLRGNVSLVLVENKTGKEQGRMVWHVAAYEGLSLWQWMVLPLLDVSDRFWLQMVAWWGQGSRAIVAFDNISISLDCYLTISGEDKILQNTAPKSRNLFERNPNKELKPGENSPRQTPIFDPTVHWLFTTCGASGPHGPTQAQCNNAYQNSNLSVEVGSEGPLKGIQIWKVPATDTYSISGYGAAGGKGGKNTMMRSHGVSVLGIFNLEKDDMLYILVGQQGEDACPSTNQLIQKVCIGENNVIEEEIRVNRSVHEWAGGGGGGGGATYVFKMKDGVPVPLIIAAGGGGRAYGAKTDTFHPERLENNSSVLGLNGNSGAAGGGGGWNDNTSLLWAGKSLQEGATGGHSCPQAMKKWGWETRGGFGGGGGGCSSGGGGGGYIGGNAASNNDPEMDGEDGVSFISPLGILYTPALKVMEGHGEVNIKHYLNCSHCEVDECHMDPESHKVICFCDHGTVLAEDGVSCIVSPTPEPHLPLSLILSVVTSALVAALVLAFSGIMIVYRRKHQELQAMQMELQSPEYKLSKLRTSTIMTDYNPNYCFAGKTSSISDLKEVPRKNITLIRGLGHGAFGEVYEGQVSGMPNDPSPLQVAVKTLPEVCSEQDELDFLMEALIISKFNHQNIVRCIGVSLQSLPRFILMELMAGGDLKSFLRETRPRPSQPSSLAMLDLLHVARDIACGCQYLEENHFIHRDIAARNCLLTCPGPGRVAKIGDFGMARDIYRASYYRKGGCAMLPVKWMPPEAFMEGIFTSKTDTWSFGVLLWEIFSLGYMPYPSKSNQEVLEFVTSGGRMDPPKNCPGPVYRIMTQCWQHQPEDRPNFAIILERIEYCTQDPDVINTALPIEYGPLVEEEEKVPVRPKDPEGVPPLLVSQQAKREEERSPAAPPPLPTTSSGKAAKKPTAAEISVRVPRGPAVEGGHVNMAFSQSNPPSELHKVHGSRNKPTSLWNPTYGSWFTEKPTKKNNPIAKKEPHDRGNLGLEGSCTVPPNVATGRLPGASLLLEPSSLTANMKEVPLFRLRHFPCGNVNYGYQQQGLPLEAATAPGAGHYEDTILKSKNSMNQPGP
ZAP70, sequence (P43403 whole entry): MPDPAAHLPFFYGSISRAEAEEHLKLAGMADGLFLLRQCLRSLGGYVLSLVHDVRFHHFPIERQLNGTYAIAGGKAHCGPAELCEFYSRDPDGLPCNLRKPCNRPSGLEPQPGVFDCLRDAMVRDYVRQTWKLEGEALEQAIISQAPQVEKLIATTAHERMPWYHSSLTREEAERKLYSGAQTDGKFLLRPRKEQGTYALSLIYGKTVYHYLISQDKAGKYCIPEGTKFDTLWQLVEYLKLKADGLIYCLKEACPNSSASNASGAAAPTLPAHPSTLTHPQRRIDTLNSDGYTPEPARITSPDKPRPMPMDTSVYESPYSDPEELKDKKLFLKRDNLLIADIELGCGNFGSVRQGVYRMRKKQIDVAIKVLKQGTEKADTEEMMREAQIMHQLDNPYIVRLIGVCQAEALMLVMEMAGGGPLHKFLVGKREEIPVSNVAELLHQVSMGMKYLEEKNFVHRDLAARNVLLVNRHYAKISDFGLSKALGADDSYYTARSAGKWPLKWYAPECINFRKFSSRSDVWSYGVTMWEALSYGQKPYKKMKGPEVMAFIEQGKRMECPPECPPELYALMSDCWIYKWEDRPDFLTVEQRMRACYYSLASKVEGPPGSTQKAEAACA

CC(C)COC(=O)c1[nH]c2ccc(F)cc2c1-c1cn(CC2CCN(CCNS(=O)(=O)c3ccc(CC(C)C)cc3)CC2)nn1 [AB668, isobutyl 5-fluoro-3-(1-((1-(2-((4-isobutylphenyl)sulfonamido)ethyl)piperidin-4-yl)methyl)-1H-1,2,3-triazol-4-yl)-1H-indole-2-carboxylate]
remaining activity at 2 µM (MELK): 100%
remaining activity at 2 µM (ALK(L1196M)): 85%
remaining activity at 2 µM (HIPK1): 100%
remaining activity at 2 µM (EPHA2): 92%
remaining activity at 2 µM (MYLK2): 96%
remaining activity at 2 µM (MAP3K4): 90%
remaining activity at 2 µM (KIT(V559D,T670I)): 93%
cell death in various cancer cells [1]: broad effect on cell death
remaining activity at 2 µM [2]: 86%
remaining activity at 2 µM (PFTAIRE2): 88%
remaining activity at 2 µM (EPHB3): 80%
remaining activity at 2 µM [3]: 95%
remaining activity at 2 µM [4]: 73%
remaining activity at 2 µM (CDK4-cyclinD3): 96%
remaining activity at 2 µM (NEK11): 100%
remaining activity at 2 µM (HUNK): 88%
remaining activity at 2 µM (CAMK1D): 96%
remaining activity at 2 µM (CHEK2): 100%
remaining activity at 2 µM (GCN2(Kin.Dom.2,S808G)): 80%
remaining activity at 2 µM (DAPK2): 71%
remaining activity at 2 µM (ABL1-phosphorylated): 82%
remaining activity at 2 µM (ZAP70): 76%
proliferation, cell death and apoptosis (786-O cells; 4 μM): induced significant cell proliferation arrest associated with cell death and apoptosis
renal cancer cell death, dose dependent (786-O cells; low concentration (<5μM)): more efficient than CX-4945 and SGC-CK2-1
remaining activity at 2 µM (TNNI3K): 96%
remaining activity at 2 µM (FLT3): 87%
remaining activity at 2 µM (ABL2): 94%
p38 activation (p38 MAPK (T180/Y182)): activated in both cell types
remaining activity at 2 µM (PRKR): 75%
remaining activity at 2 µM [5]: 64%
remaining activity at 2 µM (ASK1): 100%
remaining activity at 2 µM (LKB1): 89%
remaining activity at 2 µM (PDGFRB): 100%
remaining activity at 2 µM (MYO3A): 96%
remaining activity at 2 µM (EPHA7): 93%
remaining activity at 2 µM (MAP3K2): 93%
remaining activity at 2 µM (SLK): 100%
remaining activity at 2 µM (ERK8): 53%
remaining activity at 2 µM (AKT1): 88%
remaining activity at 2 µM (LOK): 100%
remaining activity at 2 µM (CAMK1B): 100%
remaining activity at 2 µM (CAMK1): 77%
remaining activity at 2 µM (MAST1): 100%
